In general, IC50 refers to the point on the concentration scale where inhibition reaches its midpoint. A lower IC50 goes with higher potency.

In article PMC11232110 (RSC Advances, 2024) one finds IC50 data, which are given here for one compound.

The test deals with enoyl acyl carrier protein reductase (InhA) (Mycobacterium tuberculosis, UniProt P9WGR1). Nature of the test: InhA enzyme inhibition assay. Format: biochemical.
enoyl acyl carrier protein reductase (InhA), sequence (P9WGR1 whole entry, looked up): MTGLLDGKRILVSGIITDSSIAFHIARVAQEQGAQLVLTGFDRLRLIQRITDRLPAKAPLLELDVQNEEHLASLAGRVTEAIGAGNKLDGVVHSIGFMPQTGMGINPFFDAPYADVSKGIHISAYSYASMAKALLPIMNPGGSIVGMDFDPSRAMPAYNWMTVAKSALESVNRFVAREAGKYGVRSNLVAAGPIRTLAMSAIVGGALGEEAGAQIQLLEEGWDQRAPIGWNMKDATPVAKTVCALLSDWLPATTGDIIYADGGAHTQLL

As for `O=c1cc(-c2ccccc2)c2cc(Cl)c(OCc3nnn(CCN4CCOCC4)n3)cc2o1` [4c, 7-((2-(2-Morpholinoethyl)-2H-tetrazol-5-yl)methoxy)-6-chloro-4-phenyl-2H-chromen-2-one], the IC50 is 565 ± 20 nM.
